The results in this text go back to paper PMC5107956 (2016).

What all share (assay): fluorescent intercalator displacement (thiazole orange)
What all share (conditions): 50 mM KCl, 10 mM potassium cacodylate (60 mM K+); pH 7.4, room temperature; thiazole orange 0.625 μM displaced; DNA 0.25 μM; DMSO stocks

Experiment [1] deals with HTelo (DNA, G4) AGGGTTAGGGTTAGGGTTAGGG
Experiment [2] deals with KRAS m(1:5:1) (DNA, G4) GGGAGGGAAGGAGGGAGGG
Experiment [3] relates to KRAS m(1:9:1) (DNA, G4) GGGAGGGAAGGAGGGAGGGAGGG
Experiment [4] deals with c-Kit (c-Kit21) (DNA, G4) CGGGCGGGCGCGAGGGAGGGG
Experiment [5] deals with c-Myc (DNA, G4) GGGAGGGTGGGGAGGGTGGG
Experiment [6] has as its system ds26 (DNA, duplex) CAATCGGATCGAATTCGATCCGATTG
The subject of experiment [7] is HIF1α (HIF1) (DNA, G4) CGGGGAGGGGAGAGGGGGCGGGA
Experiment [8] concerns hTERT (DNA, G4) GGGGAGGGGCTGGGAGGGCCC
For experiment [9], the system named is VEGF (VEGF22) (DNA, G4) CGGGGCGGGCCGGGGGCGGGGT

On to `O=C(N/N=C/c1ccc(O)cc1[O-])N(Cc1ccccc1)Cc1ccccc1.[Cu+2].c1ccncc1`, for which the DC50 in experiment [1] is 1.01 (0.03) μM; in experiment [2], 2.28 (0.10) μM; in [3], 2.35 (0.09) μM; in experiment [4] it was 3.58 (0.28) μM; in experiment [5], 7.15 (0.17) μM; in [6] it was 9.91 (0.55) μM. Also, the DC50 is 10.20 (0.54) μM in experiment [7], 10.51 (0.61) μM in [8] and 11.58 (0.41) μM in experiment [9].
